Measurements: ChEMBL document CHEMBL1201862, “PubChem BioAssay data set” (2004)
Activity calls are given as the source filed them.

Tests used:
Beta Lactamase = Beta Lactamase (Pseudomonas aeruginosa, UniProt Q932Y6); test: BLA reporter interference, concentration series – BLA reporter cells, FRET fluorescence, artefact control for NOD2-RIPK2 interaction inhibitor project, dose response (AID 651552); type: functional, cell-based
[1] = HepG2 cell cytotoxicity, dose response, cytotoxicity control for non-replicating M. tuberculosis project (AID 489018); type: functional; conditions: Mycobacterium tuberculosis
[2] = loss of viability in HepG2 cells – cell-based, CellTiter-Glo, cherry-picked, cytotoxicity control for Shn3 inhibitor project, dose response (AID 624134); type: functional
[3] = biological target: Interleukin-1 receptor-associated kinase 4 (Homo sapiens, UniProt Q9NWZ3); type: functional
Sequence of Interleukin-1 receptor-associated kinase 4 (Q9NWZ3 whole entry): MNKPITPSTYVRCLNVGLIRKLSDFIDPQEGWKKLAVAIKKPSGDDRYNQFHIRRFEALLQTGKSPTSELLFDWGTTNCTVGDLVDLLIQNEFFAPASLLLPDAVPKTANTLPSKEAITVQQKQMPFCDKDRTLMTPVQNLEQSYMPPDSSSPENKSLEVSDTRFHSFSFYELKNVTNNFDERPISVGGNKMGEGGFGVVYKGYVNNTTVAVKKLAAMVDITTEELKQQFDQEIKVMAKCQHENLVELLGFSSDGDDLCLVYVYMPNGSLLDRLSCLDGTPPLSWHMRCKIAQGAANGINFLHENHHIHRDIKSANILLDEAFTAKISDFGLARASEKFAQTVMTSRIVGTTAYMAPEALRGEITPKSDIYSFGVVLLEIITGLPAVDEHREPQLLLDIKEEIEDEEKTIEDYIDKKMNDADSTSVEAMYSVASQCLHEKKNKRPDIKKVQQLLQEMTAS

[4] = biological target: Protein kinase C theta type (Homo sapiens, UniProt Q04759); test: Navigating the Kinome. Panel member name: PRKCQ; type: functional
Sequence of Protein kinase C theta type (Q04759 whole entry): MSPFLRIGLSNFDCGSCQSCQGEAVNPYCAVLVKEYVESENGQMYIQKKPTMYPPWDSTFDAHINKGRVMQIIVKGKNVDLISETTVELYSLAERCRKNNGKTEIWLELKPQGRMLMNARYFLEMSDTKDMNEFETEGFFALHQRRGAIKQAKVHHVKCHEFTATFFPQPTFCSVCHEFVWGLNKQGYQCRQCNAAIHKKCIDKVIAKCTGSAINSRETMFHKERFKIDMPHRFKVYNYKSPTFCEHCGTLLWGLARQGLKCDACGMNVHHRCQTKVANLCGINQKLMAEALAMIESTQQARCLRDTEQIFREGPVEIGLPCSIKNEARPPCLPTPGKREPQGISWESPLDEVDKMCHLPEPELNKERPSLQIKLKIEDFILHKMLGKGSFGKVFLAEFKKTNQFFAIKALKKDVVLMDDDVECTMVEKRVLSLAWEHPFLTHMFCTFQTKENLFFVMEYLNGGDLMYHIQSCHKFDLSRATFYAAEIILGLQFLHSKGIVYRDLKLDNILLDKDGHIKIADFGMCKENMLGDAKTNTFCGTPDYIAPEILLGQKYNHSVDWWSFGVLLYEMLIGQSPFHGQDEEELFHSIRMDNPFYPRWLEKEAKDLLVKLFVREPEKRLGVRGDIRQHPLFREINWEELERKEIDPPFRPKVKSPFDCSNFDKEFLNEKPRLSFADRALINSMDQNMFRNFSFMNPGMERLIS

Focal adhesion kinase 1 = Focal adhesion kinase 1 (Homo sapiens, UniProt Q05397); type: functional;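 note: measured as one member of a kinome panel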
Sequence of Focal adhesion kinase 1 (Q05397 whole entry): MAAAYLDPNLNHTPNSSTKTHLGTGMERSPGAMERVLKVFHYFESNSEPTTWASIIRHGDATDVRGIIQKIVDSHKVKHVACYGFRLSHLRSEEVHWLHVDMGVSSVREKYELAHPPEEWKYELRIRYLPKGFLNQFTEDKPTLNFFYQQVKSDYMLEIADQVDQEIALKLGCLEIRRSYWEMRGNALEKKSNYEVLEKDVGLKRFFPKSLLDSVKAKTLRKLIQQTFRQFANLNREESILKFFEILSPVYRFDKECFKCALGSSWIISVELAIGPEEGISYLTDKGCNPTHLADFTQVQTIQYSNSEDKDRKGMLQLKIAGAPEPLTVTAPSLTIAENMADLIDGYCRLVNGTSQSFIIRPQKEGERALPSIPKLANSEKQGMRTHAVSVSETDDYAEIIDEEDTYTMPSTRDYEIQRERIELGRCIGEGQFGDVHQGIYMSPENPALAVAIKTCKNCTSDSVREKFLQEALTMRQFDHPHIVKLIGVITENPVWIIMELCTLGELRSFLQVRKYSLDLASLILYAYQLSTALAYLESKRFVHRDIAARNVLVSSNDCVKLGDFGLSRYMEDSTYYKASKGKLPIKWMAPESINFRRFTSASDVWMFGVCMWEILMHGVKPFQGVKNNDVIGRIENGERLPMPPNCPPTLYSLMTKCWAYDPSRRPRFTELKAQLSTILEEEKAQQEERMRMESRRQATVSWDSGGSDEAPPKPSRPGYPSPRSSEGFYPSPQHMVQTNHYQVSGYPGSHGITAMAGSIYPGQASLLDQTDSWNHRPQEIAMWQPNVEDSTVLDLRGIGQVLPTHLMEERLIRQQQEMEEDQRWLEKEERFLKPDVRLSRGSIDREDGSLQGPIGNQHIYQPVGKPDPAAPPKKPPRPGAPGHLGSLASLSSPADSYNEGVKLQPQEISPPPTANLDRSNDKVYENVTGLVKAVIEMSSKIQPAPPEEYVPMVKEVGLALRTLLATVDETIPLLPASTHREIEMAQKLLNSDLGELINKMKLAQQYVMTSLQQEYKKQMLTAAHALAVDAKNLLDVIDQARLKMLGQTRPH

Sequence of Beta Lactamase (Q932Y6 whole entry): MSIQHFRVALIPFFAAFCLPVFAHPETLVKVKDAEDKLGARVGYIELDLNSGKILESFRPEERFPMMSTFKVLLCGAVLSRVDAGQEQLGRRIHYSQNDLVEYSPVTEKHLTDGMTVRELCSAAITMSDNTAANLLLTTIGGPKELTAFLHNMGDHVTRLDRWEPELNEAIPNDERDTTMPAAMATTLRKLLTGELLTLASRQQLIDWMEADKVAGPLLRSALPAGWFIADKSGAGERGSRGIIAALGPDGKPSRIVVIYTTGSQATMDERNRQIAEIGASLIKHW

**Q.** Which IC50 (Beta Lactamase) does the source give for `COC(=O)CCS(=O)(=O)c1nc(-c2ccccc2)cc(C(F)(F)F)n1` here?
**A.** 16.4 µM (inactive)

**Q.** What about the CC50 [1] of the same molecule?
**A.** 19.4 µM (active)

**Q.** For `CCOC(=O)c1c2c(n(Cc3ccccc3)c1C)C(=O)C(=O)c1ccccc1-2`, which AC50 [2] is on record?
**A.** 6.74 µM (active)

**Q.** For `Cc1ccc2nccc(NC(=O)Nc3cccc(C(F)(F)F)n3)c2c1`, which Ki [3] is on record?
**A.** > 10 µM (inactive)

**Q.** For `Cc1nn(C)c2sc3c(=O)[nH]cnc3c12`, which Ki [4] is on record?
**A.** 79.4 µM (active)

**Q.** Which Ki (Focal adhesion kinase 1) does the source give for `COc1cc2c(cc1F)C(c1ccccc1Cl)=Nc1c(n[nH]c1C)N2` [RG-1530] here?
**A.** 0.0126 µM (active)
